≈ marks a conversion by molar mass, not a printed value.

These results are taken from patent US20230136824A1, “N-N-[…] (DMT) AND DMT ANALOG COMPOSITIONS, METHODS OF MAKING, AND METHODS OF USE THEREOF” (ATAI Life Sciences AG, priority 2021, published 2023).

A short description of series [1]: DMT solubility in various solvents (super saturated mixture, HPLC). The class given is physicochemical. The source says: Solubility studies of DMT have been carried out in various solvents by preparing super saturated mixture and analyzed using HPLC.
This warrants a strong need for improvement solubility of DMT API in the film formulation for better bioavailability.

A short description of series [2]: Excipient compatibility of DMT binary mixtures at 50° C./75% RH (HPLC impurity levels). Format: physicochemical. As to the method: Further, several excipients for formulating transmucosal films with desired properties have been analyzed for compatibility with DMT at 50° C./75% RH utilizing HPLC method to detect impurity levels.
The nature of series [3]: Forced degradation study of DMT under stress conditions (HPLC). Format: physicochemical. Conditions: for % Assay: exposure overnight. As to the method: A forced degradation study of DMT was performed under different stress conditions and samples are analyzed using HPLC.
It is important to incorporate antioxidant(s) in the formulation to prevent oxidation of DMT during the shelf life and to form stable films.

Series [4] in a line: Ex-vivo permeation through porcine buccal mucosa (Franz diffusion cell). The class given is in vitro ADME. The conditions noted are these: 180 minutes, phosphate buffered solution 0.01M pH=7. As to the method: Further, permeability of DMT through prepared films were evaluated using ex-vivo permeation study i.e., using porcine buccal mucosa as presented below. Ex-vivo permeation is well studied using Franz diffusion cell or Using chambers utilizing animal mucosa (e.g., Pig or sheep buccal mucosa) or by using commercially available synthetic membranes (e.g., Permeapad®). The Franz diffusion cell consists of two compartments; one is the donor compartment, the other is the receptor compartment of 18 mL capacity and having 0.785 cm^2 effective diffusion area. The temperature is maintained at 37° C. by water jacket. […]
Further, all prepared films are evaluated for the permeability through pig buccal mucosa and compared against the permeability of API dispersion in PBS pH 7.0 as presented in FIG. 6. In one aspect, the present invention involves a DMT polymeric film that releases about 5% or less DMT in 60 minutes, about 15% DMT or less in 180 minutes when measured through pig mucosa in phosphate buffered solution 0.01M pH=7, as shown in FIG. 6.
Further, permeability of DMT through prepared films were evaluated using ex-vivo permeation study i.e., porcine buccal mucosa or Permeapad® as presented below.

Series [5] is described as follows: pH of the donor chamber media in permeation study. Format: physicochemical. The conditions noted are these: PBS pH 7.0.
The nature of series [6]: Solubility of buccal film and neat API in Phosphate buffer saline pH 6.8. The class given is physicochemical.
Series [7] is described as follows: Physicochemical constants of DMT (log P, pKa, glass transition temperature). Conditions: amorphous N,N-DMT. An excerpt:
DMT free base is a lipophilic molecule (log P−2.573) with a small backbone (Mol wt. 188.27 g/mol).
The pH of the film plays a very important role in balancing its ionized vs unionized form at the site. In the present invention microenvironmental pH is maintained to achieve balance between ionized and unionized form and thus the permeation across the mucosa.

As to `CN(C)CCc1c[nH]c2ccccc12` [DMT, N, N-Dimethyltryptamine], the solubility (usually the concentration that dissolves in the medium under given conditions) in series [1] (Saliva Buffer (pH 6.8)) was 2.3 mg/mL (≈ 12.2 mM); in series [1] (acetone), > 126 mg/mL; in series [1] (acetonitrile), > 94 mg/mL; in series [1] (ethanol), > 98 mg/mL; in series [1] (isopropyl alcohol water) it was > 98 mg/mL; in series [1] (methanol), > 98 mg/mL. The solubility in series [1] (methanol:water (50:50)) is 26 mg/mL (≈ 138 mM); in series [1] (methanol:water (70:30)), > 50 mg/mL; in series [1] (methyl isobutyl ketone), > 90 mg/mL; in series [1] (p-dioxane) it was > 104 mg/mL; in series [1] (tetrahydrofuran) it was > 106 mg/mL; in series [1] (water), < 1 mg/mL. The amount in solution in series [6] (solubility) came to 2.3 mg/mL (≈ 12.2 mM). The “No. of Impurities” value in series [2] worked out at 6. Also, in series [2], the “Total Impurities %” value is 2.17%. Moreover, the “Oxidation upon force degradation study” value in series [3] is reported as “highly prone to oxidation”. Moreover, the “% Assay” value is listed as 99.7% in series [3] (0.1N HCl), 99.4% in series [3] (0.1N NaOH), 26.6% in series [3] (3% peroxide) and 98.5% in series [3] (70° C.). In series [4], the “DMT released through pig mucosa” value is reported as “about 33%”. Further, the “pH of the donor chamber media” value in series [5] was 9.5. The Glass transition temperature in series [7] is −18 °C.
